# Measured values as given in patent US7358276B2, “2-Oxo-1-pyrrolidine derivatives, processes for preparing them and their uses” (UCB, S.A., priority 2000, dated 2008).
# Legend:
# [1] = biological target: T1, Levetiracetam Binding Site (LBS), rat cerebral cortex membranes (Rattus norvegicus, UniProt Q02563); assay: LBS binding assay (competitive binding, [3H]-2-[4-(3-azidophenyl)-2-oxo-1-pyrrolidinyl]butanamide); conditions: 4° C., 120 min
# T1 construct: The crude membrane pellet obtained is resuspended in 50 mmol/l Tris-HCl (pH 7.4); from tissue; host or cells: rat cerebral cortex crude membranes (male Sprague-Dawley)
# [2] = tested on: audiogenic seizures in sound-susceptible mice; assay: Animal model of sound-susceptible mice (audiogenic seizures); format: in vivo; conditions: intraperitoneally 60 minutes before induction of audiogenic seizures; doses given in mol/kg
# Source text: The activity of the compounds of formula I, or their pharmaceutically acceptable salts, as anticonvulsants can be determined in the audiogenic seizures model. The objective of this test is to evaluate the anticonvulsant potential of a compound by means of audiogenic seizures induced in sound-susceptible mice, a genetic animal model with reflex seizures. In this model of primary generalised epilepsy, seizures are evoked without electrical or chemical stimulation and the seizure types are, at least in part, similar in their clinical phenomenology to seizures occurring in man (Löscher W. & Schmidt D., Epilepsy Res. (1998), 2, p. 145-181; Buchhalter J. R., Epilepsia (1993), 34, S31-S41). Results obtained with compounds of formula I are indicative of a strong pharmacological effect.
# The objective of this test is to evaluate the anticonvulsant potency of a compound in sound-susceptible mice, a genetic animal model with reflex seizures. In this model of primary generalised epilepsy, seizures are evoked without electrical or chemical stimulation and the seizure types are, at least in part, similar in their clinical phenomenology to seizures occuring in man (Löscher W. & Schmidt D., Epilepsy Res. (1998), 2, 145-181; Buchhalter J. R., Epilepsia (1993), 34, S31-S41).
# Male or female genetically sound-sensitive mice (14-28 g; N=10), derived from a DBA strain originally selected by Dr. Lehmann of the Laboratory of Acoustic Physiology (Paris) and bred in the UCB Pharma Sector husbandry unit since 1978, are used. The experimental design consisted of several groups, one group receiving the vehicle control and the other groups different doses of the test-compound. The compounds are administered intraperitoneally 60 minutes before the induction of audiogenic seizures.
# For testing, the animals are placed in small cages, one mouse per cage, in a sound-attenuated chamber. After a period of orientation of 30 seconds, the acoustic stimulus (90 dB, 10-20 kHz) is delivered for 30 seconds via loudspeakers positioned above each cage. During this interval, the mice are observed and the presence of the 3 phases of the seizure activity namely wild running, clonic and tonic convulsions, is recorded. The proportion of mice protected against wild running, clonic and tonic convulsions, respectively, is calculated.
# For active compounds, an ED50 value, i.e. the dose producing 50% protection relative to the control group, together with 95% confidence limits, was calculated using a Probit Analysis (SAS/STAT® Software, version 6.09, PROBIT procedure) of the proportions of protected mice for each of the 3 phases of the seizure activity.
# T1 sequence (Q02563 whole entry): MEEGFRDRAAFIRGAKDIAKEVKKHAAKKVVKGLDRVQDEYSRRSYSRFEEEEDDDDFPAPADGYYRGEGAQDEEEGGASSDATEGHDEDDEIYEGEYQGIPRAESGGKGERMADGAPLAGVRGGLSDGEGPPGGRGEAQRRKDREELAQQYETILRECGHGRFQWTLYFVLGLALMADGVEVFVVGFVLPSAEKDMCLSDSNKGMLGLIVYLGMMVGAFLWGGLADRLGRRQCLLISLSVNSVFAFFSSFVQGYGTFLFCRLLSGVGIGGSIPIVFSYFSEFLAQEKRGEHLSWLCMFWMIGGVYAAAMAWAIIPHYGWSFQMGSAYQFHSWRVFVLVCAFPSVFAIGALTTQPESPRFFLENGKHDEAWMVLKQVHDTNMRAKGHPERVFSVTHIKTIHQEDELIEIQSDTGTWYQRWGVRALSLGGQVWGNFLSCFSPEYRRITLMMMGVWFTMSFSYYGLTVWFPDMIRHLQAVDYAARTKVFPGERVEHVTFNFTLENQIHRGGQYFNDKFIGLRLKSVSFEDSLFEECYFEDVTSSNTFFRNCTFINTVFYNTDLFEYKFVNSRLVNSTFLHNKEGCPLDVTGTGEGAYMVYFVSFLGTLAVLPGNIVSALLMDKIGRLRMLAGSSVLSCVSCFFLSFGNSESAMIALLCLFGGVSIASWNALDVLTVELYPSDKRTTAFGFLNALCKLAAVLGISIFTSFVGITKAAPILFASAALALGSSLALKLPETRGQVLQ
Molecule,pKi (affinity for the levetiracetam binding site) [1],ED50 (dose producing 50% protection against audiogenic seizures) [2]
CCCC1CC(=O)N(C(CC)C(N)=O)C1 (stereo not shown) [Compound 201],Particular affinity,Particularly promising activity
CCC1CC(=O)N([C@@H](CC)C(N)=O)C1 (stereo partly shown) [Compound 151],Particular affinity,Particularly promising activity
"CCC(C(N)=O)N1CC(CC(F)F)CC1=O (stereo not shown) [Compound 157, 2-[4-(2,2-difluoroethyl)-2-oxo-1-pyrrolidinyl]butanamide]",Particular affinity,–
"CCCC1CC(=O)N([C@@H](CC)C(N)=O)C1 (single isomer, unassigned) [Compound 159]",Particular affinity,Particularly promising activity
"CCC(C(N)=O)N1CC(C=C(C)C)CC1=O (stereo not shown) [Compound 163, 2-(2-oxo-4-(2,2-dimethylvinyl)-1-pyrrolidinyl)butanamide]",Particular affinity,–
CCC(C(N)=O)N1CC(c2ccco2)CC1=O (stereo not shown) [Compound 196],Particular affinity,Particularly promising activity
CCC(C(N)=O)N1CC(c2ccco2)CC1=O (stereo not shown) [Compound 195],Particular affinity,Particularly promising activity
"CCCC(CN[C@@H](CC)C(N)=O)CC(=O)OCC.Cl (stereo partly drawn) [AA 2, ethyl 3-({[(1S)-1-(aminocarbonyl)propyl]amino}methyl)hexanoate hydrochloride]",–,Particularly promising activity
"CC[C@@H](C(N)=O)N1CC(C=C(F)F)CC1=O (stereo partly drawn) [Compound 213, (2S)-2-(2-oxo-4-(2,2-difluorovinyl)-1-pyrrolidinyl)butanamide]",Particular affinity,Particularly promising activity
"CC[C@@H](C(N)=O)N1CC(COS(=O)(=O)c2ccc(C)cc2)CC1=O (stereo partly drawn) [Compound 31, {1-[(1S)-1-(aminocarbonyl)propyl]-5-oxo-3-pyrrolidinyl}methyl 4-methylbenzenesulfonate]",Particular affinity,–
"C#CC1CC(=O)N(C(CC)C(N)=O)C1 (stereo not shown) [Compound 207, 2-(4-ethynyl-2-oxo-1-pyrrolidinyl)butanamide]",Particular affinity,–
CCC(C(N)=O)N1CC(c2cccc(Cl)c2)CC1=O (stereo not shown) [Compound 170],Particular affinity,–
CCCC1CC(=O)N(C(C)C(N)=O)C1 (stereo not shown) [Compound 119],Particular affinity,–
CCC(C(N)=O)N1CC(c2ccccc2F)CC1=O (stereo not shown) [Compound 173],Particular affinity,–
CC[C@@H](C(N)=O)N1CC(CBr)CC1=O (stereo partly shown) [Compound 9],Particular affinity,Particularly promising activity
"(2S)-2-(2-oxo-4-(2,2-difluorovinyl)-1-pyrrolidinyl)butanamide [Compound 222]",Particular affinity,Particularly promising activity
"CC[C@@H](C(N)=O)N1CC(CC(C)I)CC1=O (stereo partly drawn) [Compound 226, (2S)-2-[4-(2-iodopropyl)-2-oxo-1-pyrrolidinyl]butanamide]",Particular affinity,–
"CCCC(CN[C@@H](CC)C(N)=O)CC(=O)OC(C)C.Cl (mixture of isomers) [AA 5, isopropyl 3-({[(1S)-1-(aminocarbonyl)propyl]amino}methyl)hexanoate hydrochloride]",–,Particularly promising activity
CCC(C(N)=O)N1CC(c2ccccc2C(F)(F)F)CC1=O (stereo not shown) [Compound 171],Particular affinity,–
C=CCC(C(N)=O)N1CC(CCC)CC1=O (stereo not shown) [Compound 351],Particular affinity,–
"CCCC1CC(=O)N(C(CC)C(N)=O)C1 (stereo not shown) [Compound 127, 2-(2-oxo-4-propyl-1-pyrrolidinyl)butanamide]",Particular affinity,–

Molecule,pKi (affinity for the levetiracetam binding site) [1],ED50 (dose producing 50% protection against audiogenic seizures) [2]
CCC(C(N)=O)N1CC(CS(=O)(=O)c2ccccc2)CC1=O (stereo not shown) [Compound 43],Particular affinity,–
CCC(C(N)=O)N1CC(c2cccc(C)c2)CC1=O (stereo not shown) [Compound 174],Particular affinity,–
CCCC1CC(=O)N(C(CCC)C(N)=O)C1 (stereo not shown) [Compound 304],Particular affinity,–
"CC[C@@H](C(N)=O)N1CC(CN=C=S)CC1=O (stereo partly drawn) [Compound 49, (2S)-2-[4-(isothiocyanatomethyl)-2-oxo-1-pyrrolidinyl]butanamide]",Particular affinity,–
"CC[C@@H](C(N)=O)N1CC(CC(C)(C)C)CC1=O (stereo partly drawn) [Compound 149, (2S)-2-(4-neopentyl-2-oxo-1-pyrrolidinyl)butanamide]",Particular affinity,–
CCCC1CC(=O)N(C(Cc2cscn2)C(N)=O)C1 (stereo not shown) [Compound 350],Particular affinity,–
"CC[C@@H](C(N)=O)N1CC(CBr)CC1=O (stereo partly drawn) [Compound 8, (2S)-2-[4-(bromomethyl)-2-oxo-1-pyrrolidinyl]butanamide]",Particular affinity,–
"CC[C@@H](C(N)=O)N1CC(CO[N+](=O)[O-])CC1=O (stereo partly drawn) [Compound 38, {1-[(1S)-1-(aminocarbonyl)propyl]-5-oxo-3-pyrrolidinyl}methyl Nitrate]",Particular affinity,–
"CCCC(CN[C@@H](CC)C(N)=O)CC(=O)OCC.Cl (stereo partly drawn) [AA 1, ethyl 3-({[(1S)-1-(aminocarbonyl)propyl]amino}methyl)hexanoate hydrochloride]",–,Particularly promising activity
"CCC(C(N)=O)N1CC(c2cccc(Cl)c2)CC1=O (stereo not shown) [Compound 205, 2-[4-(3-chlorophenyl)-2-oxo-1-pyrrolidinyl]butanamide]",Particular affinity,–
"CC[C@@H](C(N)=O)N1CC(CCl)CC1=O (stereo partly drawn) [Compound 30, (2S)-2-[4-(chloromethyl)-2-oxo-1-pyrrolidinyl]butanamide]",Particular affinity,–
CCCC1CC(=O)N(C(CC2CC2)C(N)=O)C1 (stereo not shown) [Compound 306],Particular affinity,–
CC[C@@H](C(N)=O)N1CC(c2ccc(-c3ccccc3)cc2)CC1=O (stereo partly shown) [Compound 98],Particular affinity,–
"CC[C@@H](C(N)=O)N1CC(c2cccs2)CC1=O (stereo partly drawn) [Compound 72, (2S)-2-[2-oxo-4-(2-thienyl)-1-pyrrolidinyl]butanamide]",Particular affinity,–
"CCC(C(N)=O)N1CC(c2cccc(Cl)c2)CC1=O (stereo not shown) [Compound 204, 2-[4-(3-chlorophenyl)-2-oxo-1-pyrrolidinyl]butanamide]",Particular affinity,–
"CCCC(CN[C@@H](CC)C(N)=O)CC(=O)OCCC12CC3CC(CC(C3)C1)C2.Cl (mixture of isomers) [AA 3, 2-(1-adamantyl)ethyl 3-({[(1S)-1-(aminocarbonyl)propyl]amino}methyl)hexanoate hydrochloride]",–,Particularly promising activity
"CC[C@@H](C(N)=O)N1CC(CC(C)I)CC1=O (stereo partly drawn) [Compound 225, (2S)-2-[4-(2-iodopropyl)-2-oxo-1-pyrrolidinyl]butanamide]",Particular affinity,–
CCCCCC1CC(=O)N(C(CC)C(N)=O)C1 (stereo not shown) [Compound 142],Particular affinity,–
CCC(C(N)=O)N1CC(c2ccc(Cl)cc2)CC1=O (stereo not shown) [Compound 169],Particular affinity,–
"CCCCOC(=O)CC(CCC)CN[C@@H](CC)C(N)=O.Cl (mixture of isomers) [AA 4, butyl 3-({[(1S)-1-(aminocarbonyl)propyl]amino}methyl)hexanoate hydrochloride]",–,Particularly promising activity
